Laboratory results reported in patent publication US20250120927A1, “CNDP2 MODULATORS AND METHODS FOR THEIR USE” (Metabolon Inc., priority 2023, published 2025).
Counter-ions that a name gives are not always drawn.

Molecular target: CNDP2 (Homo sapiens (Human), UniProt Q96KP4)
Test: CNDP2 enzyme inhibition assay (Met-His hydrolysis, free histidine by o-phthaldialdehyde fluorescence), dose-response
Format: biochemical
Conditions: 50 nM purified CNDP2 (Sino Biological), 1 mM Met-His substrate, 30 minutes at 37° C.; TABLE 2
Protocol: To identify optimal conditions for identifying novel inhibitors of CNDP2, enzyme assays were performed with varied sources of purified enzyme, concentrations of enzyme, peptide substrates, concentrations of peptide substrates and metal cofactors. […] The reaction mixture was incubated for 30 minutes at 37° C. before it was quenched with an equal volume of 1% TCA. Free histidine was quantified after derivatization with a fluorophore (o-phthaldialdehyde from Sigma-Aldrich, excitation 340 nm, emission 460 nm). The reaction was conducted in an automation-friendly format to meet future screening throughput demands. A histidine titration standard curve was also included to enable conversion of fluorescence signal to molar concentration of histidine released by the hydrolysis reaction and to ensure the linearity of the fluorescence signal vs. free histidine.
Compounds of Formula (I) disclosed herein were screened for potency in inhibiting CNDP2 enzyme activity in a dose-response experiment. Bestatin was included with each batch of test molecules as a benchmark for assay quality control.

Chain of CNDP2 (Q96KP4 whole entry): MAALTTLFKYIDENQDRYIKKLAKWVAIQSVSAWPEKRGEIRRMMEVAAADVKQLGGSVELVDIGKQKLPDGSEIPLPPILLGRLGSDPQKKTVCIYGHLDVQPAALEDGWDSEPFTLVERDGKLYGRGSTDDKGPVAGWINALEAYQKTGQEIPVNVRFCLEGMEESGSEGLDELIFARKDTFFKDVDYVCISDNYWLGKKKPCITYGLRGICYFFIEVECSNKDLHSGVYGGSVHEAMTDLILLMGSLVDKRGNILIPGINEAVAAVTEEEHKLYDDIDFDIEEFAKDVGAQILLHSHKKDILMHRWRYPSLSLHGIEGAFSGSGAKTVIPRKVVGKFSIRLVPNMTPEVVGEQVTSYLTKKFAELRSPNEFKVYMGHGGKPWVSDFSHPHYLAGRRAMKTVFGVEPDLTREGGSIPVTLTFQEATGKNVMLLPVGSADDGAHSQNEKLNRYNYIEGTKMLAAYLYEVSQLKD

Row | Structure (SMILES) | IC50
1 | N[C@H](Cc1ccccc1)[C@H](O)C(=O)NC(C(=O)O)c1cc(F)cc(C(F)(F)F)c1 (stereo partly drawn) [Compound 68] | < 100 nM
2 | N[C@H](Cc1ccccc1)[C@H](O)C(=O)NC(C(=O)O)c1ccc(F)c(C(F)(F)F)c1 (stereo partly drawn) [Compound 69] | < 100 nM
3 | N[C@H](Cc1ccccc1)[C@H](O)C(=O)NC(CN1CCC(F)(F)CC1)C(=O)O (stereo partly drawn) [Compound 72] | ≥ 1000 nM
4 | N[C@H](Cc1ccccc1)[C@H](O)C(=O)N[C@H](c1cccc(OC(F)(F)F)c1)c1n[nH]c(=O)o1 [Compound 74] | ≥ 1000 nM
5 | C[C@](NC(=O)[C@@H](O)[C@H](N)Cc1ccccc1)(C(=O)O)c1cccc(C(F)(F)F)c1 [Compound 84, (R)-2-((2S,3R)-3-amino-2-hydroxy-4-phenylbutanamido)-2-(3-(trifluoromethyl)phenyl)propanoic acid] | ≥ 1000 nM
6 | N[C@H](Cc1ccccc1)[C@H](O)C(=O)N[C@@H](C(=O)O)c1cccc(C(F)(F)F)c1Cl [Compound 86, (R)-2-((2S,3R)-3-amino-2-hydroxy-4-phenylbutanamido)-2-(2-chloro-3-(trifluoromethyl)phenyl)acetic acid] | ≥ 1000 nM
7 | C[C@@](NC(=O)[C@@H](O)[C@H](N)Cc1ccccc1)(C(=O)O)c1cccc(OC(F)(F)F)c1 [Compound 88, (S)-2-((2S,3R)-3-amino-2-hydroxy-4-phenylbutanamido)-2-(3-(trifluoromethoxy)phenyl)propanoic acid] | ≥ 1000 nM
8 | C[C@](NC(=O)[C@@H](O)[C@H](N)Cc1ccccc1)(C(=O)O)c1cccc(OC(F)(F)F)c1 [Compound 89, (R)-2-((2S,3R)-3-amino-2-hydroxy-4-phenylbutanamido)-2-(3-(trifluoromethoxy)phenyl)propanoic acid] | ≥ 1000 nM
9 | N[C@H](Cc1ccccc1)[C@H](O)C(=O)N[C@@H](C(=O)O)c1cccc(C(F)(F)F)c1F [Compound 90, (R)-2-((2S,3R)-3-amino-2-hydroxy-4-phenylbutanamido)-2-(2-fluoro-3-(trifluoromethyl)phenyl)acetic acid] | < 100 nM
10 | N[C@H](Cc1ccccc1)[C@H](O)C(=O)N[C@@H](C(=O)O)c1cc(F)cc(C(F)(F)F)c1 [Compound 92, (R)-2-((2S,3R)-3-amino-2-hydroxy-4-phenylbutanamido)-2-(5-fluoro-3-(trifluoromethyl)phenyl)acetic acid] | < 100 nM
11 | N[C@H](Cc1ccccc1)[C@H](O)C(=O)N[C@@H](C(=O)O)c1ccc(F)c(C(F)(F)F)c1 [Compound 94, (R)-2-((2S,3R)-3-amino-2-hydroxy-4-phenylbutanamido)-2-(4-fluoro-3-(trifluoromethyl)phenyl)acetic acid] | < 100 nM
12 | N[C@H](Cc1ccccc1)[C@H](O)C(=O)N[C@H](C(=O)O)c1ccc(F)c(C(F)(F)F)c1 [Compound 95, (S)-2-((2S,3R)-3-amino-2-hydroxy-4-phenylbutanamido)-2-(4-fluoro-3-(trifluoromethyl)phenyl)acetic acid] | ≥ 1000 nM
13 | N[C@H](Cc1ccccc1)[C@H](O)C(=O)N[C@H](C(=O)O)c1ccc(F)c(C(F)(F)F)c1F [Compound 97, (S)-2-((2S,3R)-3-amino-2-hydroxy-4-phenylbutanamido)-2-(2,4-difluoro-3-(trifluoromethyl)phenyl)acetic acid] | 100 to 1000 nM
14 | N[C@H](Cc1ccccc1)[C@H](O)C(=O)N[C@@H](Cc1ccc(C(F)(F)F)c(Cl)c1)C(=O)O [Compound 100] | 100 to 1000 nM
15 | N[C@H](Cc1ccccc1)[C@H](O)C(=O)N[C@@H](C(=O)O)c1cc(F)cc(OC(F)(F)F)c1 [Compound 102, (R)-2-((2S,3R)-3-amino-2-hydroxy-4-phenylbutanamido)-2-(3-fluoro-5-(trifluoromethoxy)phenyl)acetic acid] | ≥ 1000 nM
16 | N[C@H](Cc1ccccc1)[C@H](O)C(=O)N[C@@H](C(=O)O)c1ccc(F)c(OC(F)(F)F)c1 [Compound 104, (R)-2-((2S,3R)-3-amino-2-hydroxy-4-phenylbutanamido)-2-(4-fluoro-3-(trifluoromethoxy)phenyl)acetic acid] | ≥ 1000 nM

Further lines, results first:

Row | IC50 | Structure (SMILES)
17 | 100 to 1000 nM | N[C@H](Cc1ccccc1)[C@H](O)C(=O)NC(c1cccc(C(F)(F)F)c1)c1noc(=O)[nH]1 (stereo partly drawn) [Compound 71]
18 | ≥ 1000 nM | N[C@H](Cc1ccccc1)[C@H](O)C(=O)N[C@@H](CN1CCC(C(F)(F)F)CC1)C(=O)O [Compound 73]
19 | ≥ 1000 nM | N[C@H](Cc1ccccc1)[C@H](O)C(=O)N[C@@H](c1cccc(OC(F)(F)F)c1)c1n[nH]c(=O)o1 [Compound 75]
20 | ≥ 1000 nM | N[C@H](Cc1ccccc1)[C@H](O)C(=O)N[C@@H](C(=O)O)c1cc(C(F)(F)F)ccc1C(F)(F)F [Compound 80]
21 | ≥ 1000 nM | N[C@H](Cc1ccccc1)[C@H](O)C(=O)N[C@H](C(=O)O)c1cc(C(F)(F)F)ccc1C(F)(F)F [Compound 81]
22 | ≥ 1000 nM | N[C@H](Cc1ccccc1)[C@H](O)C(=O)N[C@@H](CN1CCCC(F)(F)C1)C(=O)O [Compound 82]
23 | ≥ 1000 nM | N[C@H](Cc1ccccc1)[C@H](O)C(=O)N[C@@H](CN1CCC(F)(F)C1)C(=O)O [Compound 83]
24 | ≥ 1000 nM | C[C@@](NC(=O)[C@@H](O)[C@H](N)Cc1ccccc1)(C(=O)O)c1cccc(C(F)(F)F)c1 [Compound 85, (S)-2-((2S,3R)-3-amino-2-hydroxy-4-phenylbutanamido)-2-(3-(trifluoromethyl)phenyl)propanoic acid]
25 | 100 to 1000 nM | N[C@H](Cc1ccccc1)[C@H](O)C(=O)N[C@H](C(=O)O)c1cccc(C(F)(F)F)c1Cl [Compound 87, (S)-2-((2S,3R)-3-amino-2-hydroxy-4-phenylbutanamido)-2-(2-chloro-3-(trifluoromethyl)phenyl)acetic acid]
26 | 100 to 1000 nM | N[C@H](Cc1ccccc1)[C@H](O)C(=O)N[C@H](C(=O)O)c1cccc(C(F)(F)F)c1F [Compound 91, (S)-2-((2S,3R)-3-amino-2-hydroxy-4-phenylbutanamido)-2-(2-fluoro-3-(trifluoromethyl)phenyl)acetic acid]
27 | ≥ 1000 nM | N[C@H](Cc1ccccc1)[C@H](O)C(=O)N[C@H](C(=O)O)c1cc(F)cc(C(F)(F)F)c1 [Compound 93, (S)-2-((2S,3R)-3-amino-2-hydroxy-4-phenylbutanamido)-2-(5-fluoro-3-(trifluoromethyl)phenyl)acetic acid]
28 | < 100 nM | N[C@H](Cc1ccccc1)[C@H](O)C(=O)N[C@@H](C(=O)O)c1ccc(F)c(C(F)(F)F)c1F [Compound 96, (R)-2-((2S,3R)-3-amino-2-hydroxy-4-phenylbutanamido)-2-(2,4-difluoro-3-(trifluoromethyl)phenyl)acetic acid]
29 | 100 to 1000 nM | N[C@H](Cc1ccccc1)[C@H](O)C(=O)N[C@@H](Cc1cc(F)c(OC(F)(F)F)c(F)c1)C(=O)O [Compound 98]
30 | ≥ 1000 nM | N[C@H](Cc1ccccc1)[C@H](O)C(=O)N[C@@H](Cc1ccc(F)c(OC(F)(F)F)c1)C(=O)O [Compound 99]
31 | ≥ 1000 nM | N[C@H](Cc1ccccc1)[C@H](O)C(=O)N[C@@H](CC1CCC(F)(F)CC1)c1n[nH]c(=O)o1 [Compound 101]
32 | < 100 nM | N[C@H](Cc1ccccc1)[C@H](O)C(=O)N[C@H](C(=O)O)c1cc(F)cc(OC(F)(F)F)c1 [Compound 103, (S)-2-((2S,3R)-3-amino-2-hydroxy-4-phenylbutanamido)-2-(3-fluoro-5-(trifluoromethoxy)phenyl)acetic acid]
33 | < 100 nM | N[C@H](Cc1ccccc1)[C@H](O)C(=O)N[C@H](C(=O)O)c1ccc(F)c(OC(F)(F)F)c1 [Compound 105, (S)-2-((2S,3R)-3-amino-2-hydroxy-4-phenylbutanamido)-2-(4-fluoro-3-(trifluoromethoxy)phenyl)acetic acid]
34 | ≥ 1000 nM | N[C@H](Cc1ccccc1)[C@H](O)C(=O)N[C@@H](C(=O)O)c1ccc(Cl)c(OC(F)(F)F)c1 [Compound 106, (R)-2-((2S,3R)-3-amino-2-hydroxy-4-phenylbutanamido)-2-(4-chloro-3-(trifluoromethoxy)phenyl)acetic acid hydrochloride]
35 | < 100 nM | N[C@H](Cc1ccccc1)[C@H](O)C(=O)N[C@H](C(=O)O)c1ccc(Cl)c(OC(F)(F)F)c1 [Compound 107, (S)-2-((2S,3R)-3-amino-2-hydroxy-4-phenylbutanamido)-2-(4-chloro-3-(trifluoromethoxy)phenyl)acetic acid hydrochloride]
36 | ≥ 1000 nM | N[C@H](Cc1ccccc1)[C@H](O)C(=O)N[C@@H](C(=O)O)c1cc(Cl)cc(OC(F)(F)F)c1 [Compound 108, (R)-2-((2S,3R)-3-amino-2-hydroxy-4-phenylbutanamido)-2-(3-chloro-5-(trifluoromethoxy)phenyl)acetic acid hydrochloride]
37 | < 100 nM | N[C@H](Cc1ccccc1)[C@H](O)C(=O)N[C@H](C(=O)O)c1cc(Cl)cc(OC(F)(F)F)c1 [Compound 109, (S)-2-((2S,3R)-3-amino-2-hydroxy-4-phenylbutanamido)-2-(3-chloro-5-(trifluoromethoxy)phenyl)acetic acid hydrochloride]
38 | ≥ 1000 nM | N[C@H](Cc1ccccc1)[C@H](O)C(=O)N[C@@H](C(=O)O)c1ccc(Br)c(OC(F)(F)F)c1 [Compound 110, (R)-2-((2S,3R)-3-amino-2-hydroxy-4-phenylbutanamido)-2-(4-bromo-3-(trifluoromethoxy)phenyl)acetic acid hydrochloride]
39 | < 100 nM | N[C@H](Cc1ccccc1)[C@H](O)C(=O)N[C@H](C(=O)O)c1ccc(Br)c(OC(F)(F)F)c1 [Compound 111, (S)-2-((2S,3R)-3-amino-2-hydroxy-4-phenylbutanamido)-2-(4-bromo-3-(trifluoromethoxy)phenyl)acetic acid hydrochloride]
